Measured values taken from patent publication US20040126437A1, “Typing natural products” (priority 2000, published 2004).
≈ marks a conversion by molar mass, not a printed value.

Assays:
[1] = tested on: uterus colon carcinoma (line L5-26); details: L5-26 colon cells; cited from earlier work
[2] = tested on: fibrosarcoma (line HT-1080); details: HT1080 fibrosarcoma cells; cited from earlier work
[3] = tested on: Streptococcus faecalis; assay: Antibacterial activity, inhibition halos in culture; type: cell-based; details: for Antibacterial activty, inhibition halo: Streptococcus faecalis culture
From the text: (§1) The insulated compounds DCBEN, DHCA, E and mixture of E+DPB have their antibacterial properties tested in cultures of E.coli, Pseudomonas aeruginosa, Staphylococcus aureus and Streptococcus faecalis. Inhibition halos (in mm) and the obtained data recorded as in FIG. 1.
(§2) Antibacterial activity of the compounds K, G1, G2 e L2 has been evaluated in cultures of E.coli, Pseudomonas aeruginosa, Staphylococcus aureus and Streptococcus faecalis. Inhibition halos have been measured (mm) and the data recorded as in FIG. 1. S.aureus, S.faecalis e E.coli, are sensitive to the tested compounds, just varying the halos, the compound G2 has the most toxity in cultures of S.aureus e S.faecalis. None of the tested compounds had effect in P.aeruginosa.

[4] = tested on: Staphylococcus aureus; assay: as above; type: cell-based; details: for Antibacterial activty, inhibition halo: Staphylococcus aureus culture
From the text: as §1, §2

[5] = tested on: Pseudomonas aeruginosa; assay: as above; type: cell-based
From the text: as §1, §2

[6] = tested on: Escherichia coli; assay: as above; type: cell-based; details: Escherichia coli culture
From the text: as §1, §2

[7] = tested on: H. pylori NTCT 11637; details: strain NTCT 11637; cited from earlier work
[8] = tested on: H. pylori ATCC 43504; details: strain ATCC 43504; cited from earlier work
[9] = tested on: H. pylori NTCT 11916; details: strain NTCT 11916; cited from earlier work
[10] = Hepatocytes; read-out: Hepatoprotection Effect IC50 μM (Hepatocytes); cited from earlier work
[11] = cited from earlier work
[12] = tested on: insulated cavy trachea (ICT); details: ICT contracted with hystamine (1 μM); relaxation; cited from earlier work
[13] = tested on: T. cruzi trypomastigotes; assay: Effects against T. cruzi trypomastigotes cultures; type: cell-based, Trypanosoma cruzi
Procedure: FIG. 2 are recorded ID50 data related to trypomastigotes cultures (one of the growing stages of Trypanosoma cruzi (T.cruzi)) also to the compounds DCBEN, DHCA, E and mixture E+DPB and the effects of said compounds extracted from propolis trypomastigotes of T.cruzi (in mg/mL). […] The same result for Violet Crystal is 0.205 mg/mL, as previously mentioned. The results for insulated compounds are greater than the Violet Crystal.

Compound | Antitumor activity (LD50 μg/mL) L5-26 (Colon) [1] [µg/mL] | Antitumor activity (LD50 μg/mL) HT1080 (Fibrosarcoma) [2] [µg/mL] | MIC (H. pylori mg/mL) NTCT 11637 [7] [mg/mL] | MIC (H. pylori mg/mL) ATCC 43504 [8] [mg/mL] | MIC (H. pylori mg/mL) NTCT 11916 [9] [mg/mL] | IC50 [10] [µM] | also measured
C=C(C)[C@H]1Cc2cc(C(C)=O)ccc2O1 [Compound 16] | 58.09 | 57.40 | – | – | – | – | –
CC(C)=CCc1cc(C=CC(=O)O)cc2c1OC(C)(C)C=C2 [E] | – | – | – | – | – | – | Antibacterial activty, inhibition halo [3]: + (+ halo < or = to 8 mm); Antibacterial activty, inhibition halo [4]: + (+ halo < or = to 8 mm); Antibacterial activty, inhibition halo [5]: Ø; Antibacterial activty, inhibition halo [6]: + (+ halo < or = to 8 mm)
C=C(COC(C)=O)[C@H]1Cc2cc(O)c(C(C)=O)cc2O1 [Compound 18] | >100 | >100 | 1.0 (≈ 3.62 mM) | 1.0 (≈ 3.62 mM) | 1.0 (≈ 3.62 mM) | – | –
COc1ccc(-c2oc3cc(O)cc(O)c3c(=O)c2O)cc1 [Compound 22] | 70.98 | 26.97 | 1.0 (≈ 3.33 mM) | >1 | 1.0 (≈ 3.33 mM) | 22 | –
CC1(C)C=Cc2cc(C(=O)O)ccc2O1 [Compound 4] | >100 | >100 | – | – | – | – | –
COc1cc(C=O)ccc1O [Compound G1] | – | – | – | – | – | – | Antibacterial activty, inhibition halo [3]: + (+ halo < or = to 8 mm); Antibacterial activty, inhibition halo [4]: + (+ halo < or = to 8 mm); Antibacterial activty, inhibition halo [5]: Ø; Antibacterial activty, inhibition halo [6]: + (+ halo < or = to 8 mm)
CC(C)=CCc1cc(/C=C/C(=O)O)cc2c1OC(C)(C)C=C2 [Compound 2] | 50.22 | 46.86 | 0.50 (≈ 1.68 mM) | 1.00 (≈ 3.35 mM) | 0.50 (≈ 1.68 mM) | 88.1 | –
COc1cc([C@@H]2OC=C(c3cc4cc(O)c(C(C)=O)cc4o3)C[C@H]2COC(C)=O)ccc1O [Compound 26] | 12.4 | 13.9 | >1 | >1 | >1 | 63.5 | Antioxidant Activity (DPPH) [11]: 29.1 µg/mL
CC(C)=CCc1cc(/C=C/C(=O)O)cc(C/C=C(\C)COC(=O)CCc2ccccc2)c1O [Compound 24] | >100 | >100 | 0.13 (≈ 0.29 mM) | 0.25 (≈ 0.557 mM) | 0.25 (≈ 0.557 mM) | 15.2 | Antioxidant Activity (DPPH) [11]: 12.2 µg/mL
CC(C)=CCc1cc(/C=C/C(=O)O)ccc1O [Compound 7] | >100 | >100 | >1 | >1 | >1 | 34.6 | –
COc1cc([C@@H]2c3c(oc4cc(C(C)=O)c(O)cc34)C(=O)C[C@H]2COC(C)=O)ccc1O [Compound 27] | 13.7 | 43.2 | >1 | >1 | >1 | 15 | Antioxidant Activity (DPPH) [11]: 30.1 µg/mL
COc1cc(/C=C/C=O)ccc1O [Compound 9] | 10.44 | 4.05 | >1 | >1 | >1 | 45.8 | Antioxidant Activity (DPPH) [11]: 11.1 µg/mL
CC(C)=CCc1cc(/C=C/C(=O)O)ccc1OC(=O)CCc1ccccc1 [Compound 6] | 77.90 | 25.94 | 0.25 (≈ 0.686 mM) | 0.50 (≈ 1.37 mM) | 0.50 (≈ 1.37 mM) | 26.9 | –
CC(C)=CCc1cc(/C=C/C(=O)O)cc2c1OC(C)(C)C(O)C2 (stereo not drawn) [Compound 1] | 77.07 | 71.53 | 0.13 (≈ 0.411 mM) | 0.25 (≈ 0.79 mM) | 0.25 (≈ 0.79 mM) | – | –
CC(C)=CCc1cc(C=CC(=O)O)ccc1O [PHCA, 3-prenyl-4-hydroxycinnamic acid] | – | – | – | – | – | – | Emax, tension [12]: 1.258 ± 84 g
2-[1-hydroxymethyl]vinyl-6-acetyl-5-hydroxy-coumaran | – | – | – | – | – | – | Emax, tension [12]: 1.06 ± 0.09 g
C=C(CO)[C@H]1Cc2cc(O)c(C(C)=O)cc2O1 [Compound 17] | 57.15 | 45.48 | >1 | >1 | >1 | – | –
CC1(C)C=Cc2cc(/C=C/C(=O)O)ccc2O1 [Compound 3] | >100 | >100 | >1 | >1 | >1 | – | –
C=C(C)C1Cc2cc(/C=C/C(=O)O)cc(CC=C(C)C)c2O1 (stereo not drawn) [Compound 25] | >100 | >100 | 0.25 (≈ 0.838 mM) | 0.13 (≈ 0.436 mM) | 0.13 (≈ 0.436 mM) | – | Antioxidant Activity (DPPH) [11]: 15.0 µg/mL
CC(C)=CCc1cc(/C=C/C(=O)O)cc(CC=C(C)C)c1O [Compound 5] | 59.32 | 45.47 | >1 | >1 | >1 | – | Antioxidant Activity (DPPH) [11]: 5.6 µg/mL
CN(C)c1ccc(C(=C2C=CC(=[N+](C)C)C=C2)c2ccc(N(C)C)cc2)cc1.[Cl-] [Cristal violet, reference compound] | – | – | – | – | – | – | ID50/24 h [13]: 205 µg/mL
COc1cc(C=CC=O)ccc1O [Compound G2, 3-methoxy-4-hydroxycinnamaldehyde] | – | – | – | – | – | – | Antibacterial effect in words ([3]; S.faecalis culture): most toxity; Antibacterial activty, inhibition halo [3]: ++ (++ halo > or = to 8 mm and < 12 mm); Antibacterial effect in words ([4]; S.aureus culture): most toxity; Antibacterial activty, inhibition halo [4]: ++ (++ halo > or = to 8 mm and < 12 mm); Antibacterial activty, inhibition halo [5]: Ø; Antibacterial activty, inhibition halo [6]: + (+ halo < or = to 8 mm)
